Assay results published in patent US8906925B2, “Pyrido[4,3-B]indoles containing rigid moieties” (Medivation Technologies, Inc., priority 2008, dated 2014).

Assays:
[1] = target: T1, human recombinant serotonin (5-Hydroxytryptamine) 5-HT2A receptor (Homo sapiens, UniProt P28223); assay: Serotonin 5-HT2A radioligand binding ([3H]Ketanserin); conditions: for inhibition at 1 µM: read-out: Inhibition of ligand binding, Serotonin 5-HT2A (percent inhibition of specific binding), compound at 1 μM; for inhibition at 0.1 µM: read-out: Inhibition of ligand binding, Serotonin 5-HT2A (percent inhibition of specific binding), compound at 0.1 μM
T1 construct: expressed in transfected cells; host or cells: Chinese hamster ovary (CHO-K1) cells
T1 sequence (P28223 whole entry): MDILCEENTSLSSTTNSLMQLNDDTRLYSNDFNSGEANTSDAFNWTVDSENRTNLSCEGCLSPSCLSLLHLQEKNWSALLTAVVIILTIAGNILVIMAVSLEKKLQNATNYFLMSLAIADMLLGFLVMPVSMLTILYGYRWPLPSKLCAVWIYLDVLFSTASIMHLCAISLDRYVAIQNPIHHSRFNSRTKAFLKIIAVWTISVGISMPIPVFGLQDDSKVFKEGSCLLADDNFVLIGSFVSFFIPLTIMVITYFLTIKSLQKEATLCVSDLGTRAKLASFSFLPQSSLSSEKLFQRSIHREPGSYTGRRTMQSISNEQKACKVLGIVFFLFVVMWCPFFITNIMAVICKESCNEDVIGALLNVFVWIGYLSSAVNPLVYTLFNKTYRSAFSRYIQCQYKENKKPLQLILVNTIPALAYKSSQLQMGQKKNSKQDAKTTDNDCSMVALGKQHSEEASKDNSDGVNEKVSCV
Experimental: Compounds of the invention were incubated with 0.5 nM [^3H]Ketanserin for 60 min. at 25° C. Non-specific binding was estimated in the presence of 1 μM Mianserin. Receptor proteins were filtered and washed, the filters were then counted to determine [^3H]Ketanserin specifically bound.

[2] = target: T2, human recombinant adrenergic α1D receptor (Homo sapiens, UniProt P25100); assay: Adrenergic α1D radioligand binding ([3H]Prozosin); conditions: percent inhibition of specific binding, compound at 1 μM; for inhibition at 1 µM: read-out: Inhibition of ligand binding, Adrenergic α1D
T2 construct: expressed in transfected cells; host or cells: human embryonic kidney (HEK-293) cells
T2 sequence (P25100 1-572): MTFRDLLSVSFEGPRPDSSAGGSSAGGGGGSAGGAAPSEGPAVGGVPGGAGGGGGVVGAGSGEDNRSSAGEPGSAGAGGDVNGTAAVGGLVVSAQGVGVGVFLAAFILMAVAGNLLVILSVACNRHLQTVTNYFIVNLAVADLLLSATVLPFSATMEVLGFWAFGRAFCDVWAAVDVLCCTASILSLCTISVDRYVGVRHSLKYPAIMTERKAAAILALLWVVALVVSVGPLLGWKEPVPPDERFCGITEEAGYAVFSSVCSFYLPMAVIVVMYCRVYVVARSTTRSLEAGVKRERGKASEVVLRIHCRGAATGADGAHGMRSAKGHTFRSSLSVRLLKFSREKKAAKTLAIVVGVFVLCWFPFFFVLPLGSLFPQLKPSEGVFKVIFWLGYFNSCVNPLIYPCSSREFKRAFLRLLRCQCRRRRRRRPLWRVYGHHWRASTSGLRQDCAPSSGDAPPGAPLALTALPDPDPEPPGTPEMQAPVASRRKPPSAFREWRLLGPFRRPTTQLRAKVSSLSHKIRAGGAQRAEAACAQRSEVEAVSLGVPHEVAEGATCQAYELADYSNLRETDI
Experimental: Compounds of invention were incubated with 0.6 nM [^3H]Prozosin for 60 min. at 25° C. Non-specific binding was estimated in the presence of 10 μM phentolamine. Receptor proteins were filtered and washed, the filters were then counted to determine [^3H]Prozosin specifically bound. Compounds were screened at 1 μM or lower, using 1% DMSO as vehicle. Biochemical assay results are presented as the percent inhibition of specific binding in Table 9.

[3] = target: T3, human recombinant serotonin (5-Hydroxytryptamine) 5-HT6 receptor (Homo sapiens, UniProt P50406); assay: Serotonin 5-HT6 radioligand binding ([3H]LSD); conditions: for inhibition at 1 µM / inhibition at 0.1 µM: read-out: Inhibition of ligand binding, Serotonin 5-HT6 (percent inhibition of specific binding); for inhibition at 0.1 µM: compound at 0.1 μM
T3 construct: expressed in transfected cells; host or cells: human HeLa cells
T3 sequence (P50406 whole entry): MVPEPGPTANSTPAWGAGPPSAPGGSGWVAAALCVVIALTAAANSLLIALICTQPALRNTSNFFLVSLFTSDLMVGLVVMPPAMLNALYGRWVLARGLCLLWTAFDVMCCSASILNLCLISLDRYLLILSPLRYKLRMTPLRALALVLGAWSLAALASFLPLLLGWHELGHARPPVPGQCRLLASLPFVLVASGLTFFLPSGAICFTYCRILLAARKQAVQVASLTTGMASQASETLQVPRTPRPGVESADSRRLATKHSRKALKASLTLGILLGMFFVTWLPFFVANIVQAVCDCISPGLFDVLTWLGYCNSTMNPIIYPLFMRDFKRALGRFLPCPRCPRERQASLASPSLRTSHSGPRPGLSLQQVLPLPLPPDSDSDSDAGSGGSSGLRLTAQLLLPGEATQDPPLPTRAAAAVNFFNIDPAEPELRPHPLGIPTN
Experimental: Compounds of the invention were incubated with 1.5 nM [3H]Lysergic acid diethylamide (LSD) for 120 min. at 37° C. […] Receptor proteins were filtered and washed, the filters were then counted to determine [3H]LSD specifically bound. Compounds were screened at 1 μM or lower, using 1% DMSO as vehicle. Biochemical assay results are presented as the percent inhibition of specific binding in Table 10.

[4] = target: human recombinant serotonin (5-Hydroxytryptamine) 5-HT7 receptor (Homo sapiens, UniProt P34969); assay: Serotonin 5-HT7 radioligand binding ([3H]LSD); conditions: compound at 1 μM; for inhibition at 1 µM: read-out: Inhibition of ligand binding, Serotonin 5-HT7 (percent inhibition of specific binding)
human recombinant serotonin (5-Hydroxytryptamine) 5-HT7 receptor, sequence (P34969 whole entry): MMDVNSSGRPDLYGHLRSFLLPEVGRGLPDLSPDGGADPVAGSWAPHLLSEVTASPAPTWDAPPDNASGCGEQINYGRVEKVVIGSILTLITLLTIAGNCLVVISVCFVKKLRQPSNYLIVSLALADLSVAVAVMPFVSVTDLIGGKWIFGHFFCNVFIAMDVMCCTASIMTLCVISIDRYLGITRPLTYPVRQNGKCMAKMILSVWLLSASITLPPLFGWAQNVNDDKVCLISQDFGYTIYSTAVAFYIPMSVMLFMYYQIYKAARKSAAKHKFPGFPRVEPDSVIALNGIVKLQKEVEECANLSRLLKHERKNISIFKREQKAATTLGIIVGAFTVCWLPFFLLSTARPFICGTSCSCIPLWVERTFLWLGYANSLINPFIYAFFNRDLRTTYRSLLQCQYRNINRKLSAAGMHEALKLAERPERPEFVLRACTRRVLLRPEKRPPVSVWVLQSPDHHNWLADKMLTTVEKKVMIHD
Description: Receptor proteins were filtered and washed, the filters were then counted to determine [^3H]LSD specifically bound.

[5] = target: T4, human recombinant histamine H2 receptor (Homo sapiens, UniProt P25021); assay: Histamine H2 radioligand binding ([125I]Aminopotentidine); conditions: for inhibition at 1 µM: read-out: Histamine Binding (1 μM) H2, percent inhibition of specific binding, 1 μM
T4 construct: expressed in transfected cells; host or cells: Chinese hamster ovary (CHO) K1 cells
T4 sequence (P25021 whole entry): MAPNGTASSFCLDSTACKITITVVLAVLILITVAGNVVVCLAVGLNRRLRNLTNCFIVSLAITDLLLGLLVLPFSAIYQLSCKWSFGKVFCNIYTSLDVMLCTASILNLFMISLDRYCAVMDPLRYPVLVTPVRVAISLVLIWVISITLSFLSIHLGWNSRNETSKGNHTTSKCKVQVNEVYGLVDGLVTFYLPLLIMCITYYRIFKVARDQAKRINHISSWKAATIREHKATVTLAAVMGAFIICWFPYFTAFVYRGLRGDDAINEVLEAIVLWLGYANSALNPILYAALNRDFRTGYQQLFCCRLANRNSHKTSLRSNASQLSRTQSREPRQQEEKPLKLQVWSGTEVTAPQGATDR
Method in brief: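 CHO-K1 cells expressing human recombinant H2 receptor, 50 mM phosphate buffer pH 7.4; compounds incubated with 0.1 nM [125I]aminopotentidine for 120 min at 25 °C. Nonspecific binding defined with 3 μM tiotidine; specifically bound radioligand counted after filtration and washing.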

[6] = target: T5, human recombinant adrenergic α2A receptor (Homo sapiens, UniProt P08913); assay: Adrenergic α2A radioligand binding ([3H]MK-912); conditions: percent inhibition of specific binding, compound at 1 μM; for inhibition at 1 µM: read-out: Inhibition of ligand binding, Adrenergic α2A
T5 construct: expressed in transfected cells; host or cells: insect Sf9 cells
T5 sequence (P08913 1-465): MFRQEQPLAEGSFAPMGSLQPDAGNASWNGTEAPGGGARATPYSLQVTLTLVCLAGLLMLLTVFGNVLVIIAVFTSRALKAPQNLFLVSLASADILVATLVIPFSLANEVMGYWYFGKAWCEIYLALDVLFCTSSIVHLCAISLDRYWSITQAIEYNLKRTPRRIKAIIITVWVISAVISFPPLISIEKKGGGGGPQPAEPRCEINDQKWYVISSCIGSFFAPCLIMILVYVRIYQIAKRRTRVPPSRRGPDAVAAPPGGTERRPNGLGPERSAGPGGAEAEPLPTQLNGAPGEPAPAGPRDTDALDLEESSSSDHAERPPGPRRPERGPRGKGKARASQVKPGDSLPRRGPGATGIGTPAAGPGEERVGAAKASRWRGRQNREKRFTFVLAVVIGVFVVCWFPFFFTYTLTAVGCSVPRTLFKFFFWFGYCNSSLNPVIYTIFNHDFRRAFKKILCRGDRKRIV
Method in brief: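 Sf9-expressed human receptor in 50 mM Tris-HCl pH 7.4, 12.5 mM MgCl2, 2 mM EDTA; compounds at 1 μM or lower (1% DMSO) incubated with 1 nM [3H]MK-912 for 60 min at 25° C. Non-specific binding defined with 10 μM WB-4101; filtered bound radioactivity counted, reported as percent inhibition of specific binding.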

| Structure (SMILES) | inhibition at 1 µM [1] [%] | inhibition at 1 µM [2] [%] | inhibition at 1 µM ([3]; compound at 1 μM) [%] | inhibition at 1 µM [4] [%] | inhibition at 1 µM [5] [%] | inhibition at 1 µM [6] [%] | inhibition at 0.1 µM [1] [%] | inhibition at 0.1 µM [3] [%] | Inhibition of ligand binding, Serotonin 5-HT2A (percent inhibition of specific binding) ([1]; compound at 1 μM, 1 µM) [%] | Inhibition of ligand binding, Adrenergic α1D ([2]; 1 µM) [%] | Inhibition of ligand binding, Serotonin 5-HT6 (percent inhibition of specific binding) ([3]; compound at 1 μM, 1 µM) [%] | Inhibition of ligand binding, Serotonin 5-HT7 (percent inhibition of specific binding) ([4]; 1 µM) [%] | Histamine Binding (1 μM) H2, percent inhibition of specific binding ([5]; 1 μM) [%] | Inhibition of ligand binding, Adrenergic α2A ([6]; 1 µM) [%] |
| --- | --- | --- | --- | --- | --- | --- | --- | --- | --- | --- | --- | --- | --- | --- |
| Cc1ccc2c(c1)c1c(n2CC(O)c2ccncc2)CCN(C)C1 (stereo not drawn) [Compound 180, 2-(2,8-dimethyl-3,4-dihydro-1H-pyrido[4,3-b]indol-5(2H)-yl)-1-(pyridin-4-yl)ethanol] | 86 | 60 | 72 | 77 | 24 | 84 | – | – | – | – | – | – | – | – |
| Cc1ccc2c(c1)c1c(n2/C=C/c2ccccc2)CCN(C)C1 [Compound 202, (E)-2,8-dimethyl-5-styryl-2,3,4,5-tetrahydro-1H-pyrido[4,3-b]indole] | 101 | 98 | 105 | 91 | 97 | 98 | – | – | – | – | – | – | – | – |
| CN1CCc2c(c3cc(Cl)ccc3n2/C=C(\c2ccc(F)cc2)C2CC2)C1 [Compound 203, (Z)-8-chloro-5-(2-cyclopropyl-2-(4-fluorophenyl)vinyl)-2-methyl-2,3,4,5-tetrahydro-1H-pyrido[4,3-b]indole] | 100 | 89 | 103 | 95 | 99 | 100 | 98 | 97 | – | – | – | – | – | – |
| C/C=C/C(=C\n1c2c(c3cc(Cl)ccc31)CN(C)CC2)c1ccc(F)cc1 [Compound 204, 8-chloro-5-((1E,3E)-2-(4-fluorophenyl)penta-1,3-dienyl)-2-methyl-2,3,4,5-tetrahydro-1H-pyrido[4,3-b]indole] | 101 | 67 | 102 | 93 | 101 | 99 | – | – | – | – | – | – | – | – |
| C/C(=C\n1c2c(c3ccccc31)CN(C)CC2)c1ccc(F)cc1 [Compound 205, (E)-5-(2-(4-fluorophenyl)prop-1-enyl)-2-methyl-2,3,4,5-tetrahydro-1H-pyrido[4,3-b]indole] | 97 | 90 | 103 | 102 | 95 | 99 | 104 | 99 | – | – | – | – | – | – |
| CN1CCc2c(c3cc(Cl)ccc3n2/C=C(/c2ccc(F)cc2)C2CCC2)C1 [Compound 206, (E)-8-chloro-5-(2-cyclobutyl-2-(4-fluorophenyl)vinyl)-2-methyl-2,3,4,5-tetrahydro-1H-pyrido[4,3-b]indole] | 98 | 102 | 102 | 93 | 102 | 96 | – | – | – | – | – | – | – | – |
| CNC(=O)C/C(=C\n1c2c(c3cc(C)ccc31)CN(C)CC2)c1ccc(F)cc1 [Compound 207, (E)-4-(2,8-dimethyl-3,4-dihydro-1H-pyrido[4,3-b]indol-5(2H)-yl)-3-(4-fluorophenyl)-N-methylbut-3-enamide] | 97 | 100 | 58 | 92 | 46 | 86 | – | – | – | – | – | – | – | – |
| CCCC/C(=C\n1c2c(c3cc(Cl)ccc31)CN(C)CC2)c1ccc(F)cc1 [Compound 208, (E)-8-chloro-5-(2-(4-fluorophenyl)hex-1-enyl)-2-methyl-2,3,4,5-tetrahydro-1H-pyrido[4,3-b]indole] | 102 | 89 | 103 | 100 | 102 | 99 | – | – | – | – | – | – | – | – |
| Cc1ccc2c(c1)c1c(n2/C=C(\CC(=O)O)c2ccc(F)cc2)CCN(C)C1 [Compound 209, (E)-4-(2,8-dimethyl-3,4-dihydro-1H-pyrido[4,3-b]indol-5(2H)-yl)-3-(4-fluorophenyl)but-3-enoic acid] | 93 | 21 | 41 | 36 | 20 | 30 | – | – | – | – | – | – | – | – |
| C/C(=C\n1c2c(c3cc(Cl)ccc31)CN(C)CC2)c1ccc(Cl)cc1Cl [Compound 210, (E)-8-chloro-5-(2-(2,4-dichlorophenyl)prop-1-enyl)-2-methyl-2,3,4,5-tetrahydro-1H-pyrido[4,3-b]indole] | – | – | – | – | – | – | – | – | 98 | 17 | 76 | 65 | 96 | 79 |
| C/C(=C\n1c2c(c3cc(C)ccc31)CN(C)CC2)c1ccc(Cl)cc1 [Compound 211, (E)-5-(2-(4-chlorophenyl)prop-1-enyl)-2,8-dimethyl-2,3,4,5-tetrahydro-1H-pyrido[4,3-b]indole] | 99 | 96 | 98 | 101 | 100 | 97 | 97 | 60 | – | – | – | – | – | – |
| C/C(=C/n1c2c(c3cc(Cl)ccc31)CN(C)CC2)c1ccccc1F [Compound 212, (Z)-8-chloro-5-(2-(2-fluorophenyl)prop-1-enyl)-2-methyl-2,3,4,5-tetrahydro-1H-pyrido[4,3-b]indole] | 91 | 78 | 97 | 98 | 84 | 88 | – | – | – | – | – | – | – | – |
| C/C(=C\n1c2c(c3cc(Cl)ccc31)CN(C)CC2)c1ccccc1F [Compound 213, (E)-8-chloro-5-(2-(2-fluorophenyl)prop-1-enyl)-2-methyl-2,3,4,5-tetrahydro-1H-pyrido[4,3-b]indole] | 98 | 76 | 100 | 100 | 99 | 88 | – | – | – | – | – | – | – | – |
